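Five compound concentrations were applied to cells in 96-well plates for 48 hours; endpoints were derived by simple linear interpolation of the resulting dose-response curve. Here, GI50 denotes the concentration required for 50% inhibition of growth. TGI: total growth inhibition.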
Columns and labels:
Test in all cases: NCI-60 cell line screen, 48 h
[1] = test system: 786-0 renal
[2] = test system: A498 renal
[3] = test system: A549 NSCLC
[4] = test system: ACHN renal
[5] = test system: BT-549 breast
[6] = test system: CAKI-1 renal
[7] = test system: CCRF-CEM leukemia
[8] = test system: COLO 205 colon
[9] = test system: DU-145 prostate
[10] = test system: EKVX NSCLC
[11] = test system: HCC-2998 colon
[12] = test system: HCT-116 colon
[13] = test system: HCT-15 colon
[14] = test system: HL-60(TB) leukemia
[15] = test system: HOP-62 NSCLC
[16] = test system: HOP-92 NSCLC
[17] = test system: HS 578T breast
[18] = test system: HT29 colon
[19] = test system: IGROV1 ovarian
[20] = test system: K-562 leukemia
[21] = test system: KM12 colon
[22] = test system: LOX IMVI melanoma
[23] = test system: M14 melanoma
[24] = test system: MALME-3M melanoma
[25] = test system: MCF7 breast
[26] = test system: MDA-MB-231 breast
[27] = test system: MDA-MB-435
[28] = test system: MOLT-4 leukemia
[29] = test system: NCI-H226 lung
[30] = test system: NCI-H23 lung
[31] = test system: NCI-H460 lung
[32] = test system: NCI-H522 lung
[33] = test system: NCI/ADR-RES ovarian
[34] = test system: OVCAR-3 ovarian
[35] = test system: OVCAR-4 ovarian
[36] = test system: OVCAR-5 ovarian
[37] = test system: OVCAR-8 ovarian
[38] = test system: PC-3 prostate
[39] = test system: RPMI-8226 leukemia
[40] = test system: RXF 393 renal
[41] = test system: SF-268 CNS
[42] = test system: SF-295 CNS
[43] = test system: SF-539 CNS
[44] = test system: SK-MEL-2 melanoma
[45] = test system: SK-MEL-28 melanoma
[46] = test system: SK-MEL-5 melanoma
[47] = test system: SK-OV-3 ovarian
[48] = test system: SN12C renal
[49] = test system: SNB-19 CNS
[50] = test system: SNB-75 CNS
[51] = test system: SR leukemia
[52] = test system: SW-620 colon
[53] = test system: T-47D breast
[54] = test system: TK-10 renal
[55] = test system: U251 CNS
[56] = test system: UACC-257 melanoma
[57] = test system: UACC-62 melanoma
[58] = test system: UO-31 renal

## C=CCC1(O)c2ccccc2C(=O)c2c(NCCN(CC(=O)OCC)CC(=O)OCC)cccc21 (configuration not stated)
[1]
  GI50: > 100 µM
  TGI: > 100 µM
[2]
  GI50: > 100 µM
  TGI: > 100 µM
[3]
  GI50: > 100 µM
  TGI: > 100 µM
[4]
  GI50: > 100 µM
  TGI: > 100 µM
[5]
  GI50: > 100 µM
  TGI: > 100 µM
[6]
  GI50: > 100 µM
  TGI: > 100 µM
[7]
  GI50: > 100 µM
  TGI: > 100 µM
[8]
  GI50: > 100 µM
  TGI: > 100 µM
[9]
  GI50: > 100 µM
  TGI: > 100 µM
[10]
  GI50: > 100 µM
  TGI: > 100 µM
[11]
  GI50: > 100 µM
  TGI: > 100 µM
[12]
  GI50: > 100 µM
  TGI: > 100 µM
[13]
  GI50: 69.5 µM
  TGI: > 100 µM
[14]
  GI50: 71.9 µM
  TGI: > 100 µM
[15]
  GI50: > 100 µM
  TGI: > 100 µM
[16]
  GI50: > 100 µM
  TGI: > 100 µM
[17]
  GI50: > 100 µM
  TGI: > 100 µM
[18]
  GI50: > 100 µM
  TGI: > 100 µM
[19]
  GI50: > 100 µM
  TGI: > 100 µM
[20]
  GI50: 30.9 µM
  TGI: > 100 µM
[21]
  GI50: > 100 µM
  TGI: > 100 µM
[22]
  GI50: > 100 µM
  TGI: > 100 µM
[23]
  GI50: > 100 µM
  TGI: > 100 µM
[24]
  GI50: > 100 µM
  TGI: > 100 µM
[25]
  GI50: > 100 µM
  TGI: > 100 µM
[26]
  GI50: > 100 µM
  TGI: > 100 µM
[27]
  GI50: > 100 µM
  TGI: > 100 µM
[28]
  GI50: 75.6 µM
  TGI: > 100 µM
[29]
  GI50: > 100 µM
  TGI: > 100 µM
[30]
  GI50: > 100 µM
  TGI: > 100 µM
[31]
  GI50: > 100 µM
  TGI: > 100 µM
[32]
  GI50: > 100 µM
  TGI: > 100 µM
[33]
  GI50: > 100 µM
  TGI: > 100 µM
[34]
  GI50: > 100 µM
  TGI: > 100 µM
[35]
  GI50: > 100 µM
  TGI: > 100 µM
[36]
  GI50: > 100 µM
  TGI: > 100 µM
[37]
  GI50: > 100 µM
  TGI: > 100 µM
[38]
  GI50: 97.1 µM
  TGI: > 100 µM
[39]
  GI50: 98.5 µM
  TGI: > 100 µM
[40]
  GI50: > 100 µM
  TGI: > 100 µM
[41]
  GI50: > 100 µM
  TGI: > 100 µM
[42]
  GI50: > 100 µM
  TGI: > 100 µM
[43]
  GI50: > 100 µM
  TGI: > 100 µM
[44]
  GI50: > 100 µM
  TGI: > 100 µM
[45]
  GI50: > 100 µM
  TGI: > 100 µM
[46]
  GI50: > 100 µM
  TGI: > 100 µM
[47]
  GI50: > 100 µM
  TGI: > 100 µM
[48]
  GI50: 57 µM
  TGI: > 100 µM
[49]
  GI50: > 100 µM
  TGI: > 100 µM
[50]
  GI50: > 100 µM
  TGI: > 100 µM
[51]
  GI50: 46.5 µM
  TGI: > 100 µM
[52]
  GI50: > 100 µM
  TGI: > 100 µM
[53]
  GI50: 80.6 µM
  TGI: > 100 µM
[54]
  GI50: > 100 µM
  TGI: > 100 µM
[55]
  GI50: > 100 µM
  TGI: > 100 µM
[56]
  GI50: > 100 µM
  TGI: > 100 µM
[57]
  GI50: > 100 µM
  TGI: > 100 µM
[58]
  GI50: > 100 µM
  TGI: > 100 µM

## C=C1/C(=C\C=C2/CCC[C@]3(C)[C@@H]([C@H](C)CCCC(C)(C)O)CC[C@@H]23)C[C@@H](OC(=O)CBr)C[C@@H]1O
[1]
  GI50: 0.642 µM
  TGI: 1.89 µM
[2]
  GI50: 0.469 µM
  TGI: 3.17 µM
[3]
  GI50: 6.26 µM
  TGI: 31.5 µM
[4]
  GI50: 0.709 µM
  TGI: 5.13 µM
[5]
  GI50: 1.96 µM
  TGI: 4.36 µM
[6]
  GI50: 3.19 µM
  TGI: 15.8 µM
[7]
  GI50: 0.0491 µM
  TGI: 0.307 µM
[8]
  GI50: 2.58 µM
  TGI: 19.6 µM
[9]
  GI50: 12.4 µM
  TGI: 26.6 µM
[10]
  GI50: 3.17 µM
  TGI: 19.5 µM
[11]
  GI50: 13.6 µM
  TGI: 27.5 µM
[12]
  GI50: 2.22 µM
  TGI: 5.9 µM
[13]
  GI50: 1.48 µM
  TGI: 3.31 µM
[14]
  GI50: 0.3 µM
  TGI: 1.09 µM
[15]
  GI50: 12.9 µM
  TGI: 30.5 µM
[16]
  GI50: 0.138 µM
  TGI: 0.445 µM
[17]
  GI50: 1.79 µM
  TGI: 8.12 µM
[18]
  GI50: 1.15 µM
  TGI: 10.5 µM
[19]
  GI50: 0.0604 µM
  TGI: 0.15 µM
[20]
  GI50: 2.75 µM
  TGI: > 33.9 µM
[21]
  GI50: 0.4 µM
  TGI: 3.03 µM
[22]
  GI50: 0.147 µM
  TGI: 0.304 µM
[23]
  GI50: 2.71 µM
  TGI: 8.74 µM
[24]
  GI50: 0.184 µM
  TGI: 0.674 µM
[25]
  GI50: 1.38 µM
  TGI: 5.74 µM
[26]
  GI50: 1.39 µM
  TGI: 5.4 µM
[27]
  GI50: 4.22 µM
  TGI: 10.9 µM
[28]
  GI50: 0.371 µM
  TGI: 2.05 µM
[29]
  GI50: 3.74 µM
  TGI: 22.1 µM
[30]
  GI50: 0.386 µM
  TGI: 2.31 µM
[31]
  GI50: 12 µM
  TGI: 28 µM
[32]
  GI50: 0.255 µM
  TGI: 0.83 µM
[33]
  GI50: 1.95 µM
  TGI: 18.7 µM
[34]
  GI50: 0.395 µM
  TGI: 1.23 µM
[35]
  GI50: 0.329 µM
  TGI: 1.6 µM
[36]
  GI50: 1.55 µM
  TGI: 19.3 µM
[37]
  GI50: 2.12 µM
  TGI: 30.5 µM
[38]
  GI50: 1.11 µM
  TGI: 5.88 µM
[39]
  GI50: 0.293 µM
  TGI: 2.48 µM
[40]
  GI50: 2.6 µM
  TGI: 7.41 µM
[41]
  GI50: 2.26 µM
  TGI: 6.1 µM
[42]
  GI50: 6.81 µM
  TGI: 20.3 µM
[43]
  GI50: 0.212 µM
  TGI: 0.629 µM
[44]
  GI50: 9.75 µM
  TGI: 28.6 µM
[45]
  GI50: 4.95 µM
  TGI: 10.9 µM
[46]
  GI50: 2.46 µM
  TGI: 6.41 µM
[47]
  GI50: 14.9 µM
  TGI: 29.5 µM
[48]
  GI50: 4.93 µM
  TGI: 11.9 µM
[49]
  GI50: 11.2 µM
  TGI: 24.9 µM
[50]
  GI50: < 0.0116 µM
  TGI: 0.109 µM
[51]
  GI50: 0.0902 µM
  TGI: 1.5 µM
[52]
  GI50: 1.78 µM
  TGI: 3.96 µM
[53]
  GI50: 2.71 µM
  TGI: 19.3 µM
[54]
  GI50: 6.88 µM
  TGI: 21.6 µM
[55]
  GI50: 4.51 µM
  TGI: 18.8 µM
[56]
  GI50: 9.84 µM
  TGI: 26.8 µM
[57]
  GI50: 3.29 µM
  TGI: 9.84 µM
[58]
  GI50: 0.155 µM
  TGI: 0.292 µM
